Measurements as given in patent publication US9930893B2, “Inhibitors of DXP synthase and methods of use thereof” (The Johns Hopkins University, priority 2014, dated 2018).
In brackets after ≈: the same amount, converted by molar mass. Several values for one entry are separate records, joined by “and”; a condition that tells them apart may be missing. Equal values may be shown once. Read-outs that look alike come from different tables or passages of the source.

Experiments:
[1] = system: ΔtolC variant of E. coli BW25113; experiment: Antimicrobial activity against ΔtolC variant grown in CAMHB; format: cell-based; details: 0.63 to 5 mM, 16 hour
Experimental: (§1) Standardized innocula of E. coli BW25113 (approximately ˜10^5 CFU mL^−1) were treated with varying concentrations of either MAP (blue) or EAP (orange) from 0.63 to 5 mM for 16 hours, and fractional growth was determined by comparison to a no drug control. The ΔtolC variant of BW25113 was also treated with varying concentrations of MAP (black) or EAP (green) from 0.63 to 5 mM for 16 hour, and fractional growth was determined by comparison to no drug controls. Experiments were performed in duplicate, and error bars represent standard deviation.

E. coli BW25113 = experiment: Antimicrobial activity against E. coli BW25113 grown in CAMHB; format: cell-based; details: 0.63 to 5 mM, 16 hours
Experimental: FIG. 9 is a chart showing antimicrobial activity of acetylphosphonates against E. coli BW25113 grown in CAMHB. Standardized cell cultures (approximately ˜10^5 CFU mL^−1) were exposed to increasing concentrations of acetylphosphonate. Fractional growth was determined at 16 hours as a percentage of the growth of no drug control. BAP (●), PentAP (▪) and HexAP (▴) were varied from 0.31 to 5 mM. OctAP (▾) was varied from 0.63 to 5 mM, and BnAP (♦) was varied from 0.16 mM to 5 mM. Each data point is the average of 3 independent experiments and the error bars are standard error.
as §1

DXP synthase = target: T1, DXP synthase (Escherichia coli, UniProt P77488); experiment: Aromatic aldehydes as DXP synthase acceptor substrates; format: biochemical
T1 construct: made in house
T1 sequence (P77488 1-620): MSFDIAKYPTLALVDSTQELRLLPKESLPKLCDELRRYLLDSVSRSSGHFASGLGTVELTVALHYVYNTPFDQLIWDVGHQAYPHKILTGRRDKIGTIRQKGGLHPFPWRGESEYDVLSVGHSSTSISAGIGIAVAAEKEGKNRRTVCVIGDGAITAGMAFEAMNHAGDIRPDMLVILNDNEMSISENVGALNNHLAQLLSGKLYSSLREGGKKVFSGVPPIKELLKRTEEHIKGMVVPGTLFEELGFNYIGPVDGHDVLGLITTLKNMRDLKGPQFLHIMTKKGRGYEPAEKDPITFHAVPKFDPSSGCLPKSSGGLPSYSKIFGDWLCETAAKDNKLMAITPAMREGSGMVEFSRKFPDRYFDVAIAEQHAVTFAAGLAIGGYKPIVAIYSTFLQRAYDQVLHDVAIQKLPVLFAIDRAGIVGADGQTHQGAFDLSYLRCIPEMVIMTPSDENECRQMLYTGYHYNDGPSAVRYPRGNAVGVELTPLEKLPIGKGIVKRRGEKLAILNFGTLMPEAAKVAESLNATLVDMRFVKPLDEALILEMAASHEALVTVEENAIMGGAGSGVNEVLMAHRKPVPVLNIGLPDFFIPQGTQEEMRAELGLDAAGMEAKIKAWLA
Text: Some ThDP-dependent enzymes are known to catalyze C—C bond formation using aromatic substrates with varying turnover efficiencies; ^[20] [21] […] As a starting point, we tested several aromatic aldehydes as acceptor substrates.

[2] = target: T2, Porcine pyruvate dehydrogenase (PDH E1 subunit) (Sus scrofa, UniProt P29804); experiment: Inhibition of PDH by acetylphosphonates; format: biochemical; details: Table 5 (no unit in table; μM)
T2 construct: Ki^PDH; μM); Ki^PDH
T2 sequence (P29804 1-390): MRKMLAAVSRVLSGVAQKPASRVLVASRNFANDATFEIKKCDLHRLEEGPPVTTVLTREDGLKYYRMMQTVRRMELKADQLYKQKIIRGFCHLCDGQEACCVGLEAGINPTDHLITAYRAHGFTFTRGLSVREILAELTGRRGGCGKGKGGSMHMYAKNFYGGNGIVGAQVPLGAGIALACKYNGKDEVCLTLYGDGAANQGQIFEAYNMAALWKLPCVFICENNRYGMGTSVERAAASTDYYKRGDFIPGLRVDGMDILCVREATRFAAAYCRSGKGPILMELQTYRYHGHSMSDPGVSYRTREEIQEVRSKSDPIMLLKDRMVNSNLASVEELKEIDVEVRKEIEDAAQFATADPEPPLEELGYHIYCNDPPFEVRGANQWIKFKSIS
Experimental: FIG. 6A, FIG. 6B, and FIG. 6C are charts showing Competitive inhibition of procine PDH E1 subunit by PentAP (FIG. 6A), HexAP (FIG. 6B) and OctAP (FIG. 6C). Inhibition assays were performed as previously described^[18]. Pyruvate concentration was varied from 12.5-250 μM and acetylphosphonate concentration was varied: 0 μM (∘), 250 μM (PentAP) or 200 μM (HexAP and OctAP) (●), 500 μM (□) and 1000 μM (▪). Experiments were performed in triplicate, and data were subjected to non-linear regression analysis for Ki determinations (GraphPad Prism). Representative Lineweaver-Burk plots (GraFit from Erithacus Software) are shown for PentAP (FIG. 6A), HexAP (FIG. 6B) and OctAP (FIG. […]) to illustrate the competitive inhibition mode with respect to pyruvate.
Pyruvate dehydrogenase activity was measured spectrophotometrically as previously reported ^[38] by monitoring absorbance changes at 340 nm due to reduction of NAD^+ by PDH. Reaction mixtures contained 100 mM HEPES (pH 8.0), 1 mg/mL BSA, 0.2 mM ThDP, 0.1 mM coenzyme A, 1 mM MgCl2, 2 mM cysteine, 0.3 mM tris(2-carboxyethyl)phosphine (TCEP). The reaction was initiated with enzyme (0.01 units/ml) and activity was monitored at 30° C. For inhibition studies, reaction mixtures (described above) including BnAP (0.5, 1, 2.25 mM) were pre-incubated at 30° C. for 5 minutes. Initial rates were measured immediately after reactions were initiated by addition of PDH (0.01 units/ml). Double reciprocal analysis of data was carried out using GraFit version 7 from Erithacus Software.

E. coli K-12 (BW25113) = experiment: Antimicrobial activity against E. coli K-12 grown in M9 minimal medium; format: cell-based; details: Escherichia coli, BW25113
Text: The product of DXP synthase, DXP, lies at a metabolic branchpoint. DXP serves as precursor not only for essential isoprenoids, but also is essential to central metabolism as a precursor to both thiamin diphosphate and pyridoxal phosphate. Thus, evaluation of antimicrobial activity of DXP synthase inhibitors in the standard, rich growth medium (CAMHB) which contains rescuing metabolites, likely underestimates the antimicrobial activities of these agents. Standard in vitro culture conditions may have poor predictive value for these agents in vivo; access to most nutrients is thought to be more difficult from the host than in nutrient rich media.

E. coli DXP synthase = target: T3, E. coli DXP synthase (Escherichia coli, UniProt P77488); experiment: biochemical; details: competitive with respect to pyruvate
T3 construct: made in house
Experimental: FIG. 4A, FIG. 4B, and FIG. 4C are charts showing competitive inhibition of DXP synthase by pentylacetylphosphonate (PentAP; FIG. 4A), hexylacetylphosphonate (HexAP; FIG. 4B), and octylacetyl phosphonate (OctAP; FIG. 4C). Inhibition assays were performed as previously described^[18], [40]). […] Pyruvate concentration was varied from 12-240 μM and acetylphosphonate concentration was varied: 0 μM (∘), 10 μM (●), 25 μM (□) and 50 μM (▪). Experiments were performed in triplicate, and data were subjected to non-linear regression analysis for Ki determinations (GraphPad Prism). Representative Lineweaver-Burk plots (GraFit from Erithacus Software) are shown for PentAP (FIG. 4A), HexAP (FIG. 4B) and OctAP (FIG. 4C) to illustrate the competitive inhibition mode with respect to pyruvate.
Inhibition of DXP synthase was measured as previously described^[13], [18]. […] Acetylphosphonate concentration was varied from 0 to 250 μM. […] Experiments were performed in triplicate for BAP and in duplicate for iPrAP
In order to evaluate the inhibitory activity of BnAP against DXP synthase, a continuous spectrophotometric coupled assay was used to measure formation of DXP by monitoring IspC consumption of NADPH (340 nm). ^[2] DXP synthase reaction mixtures (previously described) including BnAP (15, 30, and 60 μM), IspC (1 μM) and NADPH (100 μM) were pre-incubated at 37° C. for 5 minutes. Initial rates were measured after the reaction was initiated by the addition of DXP synthase. Inhibition of the coupling enzyme (IspC) by BnAP was not observed up to 1.5 mM. Experiments were performed in triplicate. Double reciprocal analysis of data was carried out using GraFit version 7 from Erithacus Software.

[3] = system: wild-type K-12 E. coli (ATCC: MG1655); experiment: Antimicrobial activity against E. coli K-12 grown in CAMHB; format: cell-based
Experimental: FIG. 7A and FIG. 7B are charts showing representative growth curves are shown for BAP (FIG. 7A) and BnAP (FIG. 7B). Alkylacetylphosphonates exert dose-dependent delay in E. coli K-12 (MG 1655) growth in CAMHB. Fractional growth (measured at 16 h, blue arrow) was determined relative to the no drug control. Standardized cell cultures were exposed to increasing concentrations of acetylphosphonate, and growth was determined by measuring the OD600 for a period of 16 hours. Acetylphosphonate concentration was varied from 0-5 mM: No drug (light blue), 0.08 mM (orange), 0.16 mM (gray), 0.31 mM (yellow), 0.63 mM (blue), 1.25 mM (green), 2.5 mM (dark blue) and 5.0 mM (brown).
Thus, BnAP, PentAP, HexAP and OctAP, also shown to inhibit DXP synthase, were evaluated for antimicrobial activity against wild-type K-12 E. coli (ATCC: MG1655) grown in rich medium (CAMHB).

[4] = aromatic aldehyde acceptor substrate

CCOP(=O)(O)C(C)=O [EAP, ethyl acetylphosphonate]
activity against ΔtolC variant [1]: inactive | activity against E. coli BW25113 (E. coli BW25113): inactive

O=Cc1c(O)cc([N+](=O)[O-])cc1[N+](=O)[O-] [2-Hydroxy-4,6-dinitrobenzaldehyde]
Km higher than the natural substrate, D-GAP (DXP synthase): ~18 fold | Km (DXP synthase; [4]): 512 µM | kcat (DXP synthase; [4]): 0.00583 ± 0.00083 s⁻¹

CCCCCCCCOP(=O)(O)C(C)=O [OctAP, Octylacetylphosphonate]
Ki ([2]; read-out: Ki^PDH): 154 ± 14 µM | MIC (E. coli K-12 (BW25113); M9 minimal medium, preliminary, read-out: MIC): 1250 µM (≈ 295 µg/mL) | Ki (E. coli DXP synthase; read-out: Ki (DXP synthase)): 6 ± 0.2 µM | antimicrobial effects against E. coli (MG1655) ([3]; FIG. 10, in words): inactive | inactive up to ([3]; rich medium (CAMHB)): > 5 mM and > 1210 ug/mL

CCCCCOP(=O)(O)C(C)=O [PentAP, Pentylacetylphosphonate]
Ki ([2]; Ki^PDH): 250 ± 31 µM | MIC (E. coli K-12 (BW25113)): 12500 µM (≈ 2430 µg/mL) | Ki (E. coli DXP synthase; Ki (DXP synthase)): 9.9 ± 0.4 µM | MIC90 ([3]; Escherichia coli, MG1655, 16 h, read-out: minimum inhibitory concentration (MIC90)): 1250 µM (≈ 243 µg/mL)

COP(=O)(O)C(C)=O [MAP, methyl acetylphosphonate]
activity against ΔtolC variant [1]: inactive | activity against E. coli BW25113 (E. coli BW25113): inactive
